In patent US20100323990A1, “SHIP 1 MODULATOR PRODRUGS” (THE UNIVERSITY OF BRITISH COLUMBIA, priority 2006, published 2010):

Experiments:
[1] = tested on: J774.1a macrophage cells; assay: Macrophage TNF-α production (Assay 2); assay type: cell-based; details: 10 μg/mL test compound, 100 ng/mL LPS, supernatants after 2 hr and 5 hr; also: key: a ‘+’ indicates a positive result for desired activity; a ‘−’ indicates a negative result for desired activity
Protocol: (§1) Assay 1) In vitro testing in a SHIP enzyme assay. Test compounds were dissolved in a suitable solvent (e.g. EtOH, DMSO and others) and diluted into aqueous buffer (20 mM Tris HCl, pH 7.5 and 10 mM MgCl2). SHIP enzyme assays were performed in 96-well microtitre plates with 10 ng of enzyme/well in a total volume of 25 μL of 20 mM Tris HCl, pH 7.5 and 10 mM MgCl2. SHIP enzyme was incubated with test extracts (provided in solvent) or vehicle for 15 min at 23° C. before the addition of 100 μM inositol-1,3,4,5-tetrakisphosphate (Echelon Biosciences Inc, Salt Lake City, Utah). After 20 min at 37° C. and the amount of inorganic phosphate released assessed by the addition of Malachite Green reagent and absorbance measurement at 650 nm. Assay 2) Macrophage TNF-α production. J774.1a macrophage cells were treated with 10 μg/mL of test compound dissolved in solvent (e.g. cyclodextran) for 40 minutes prior to the addition of 100 ng/mL LPS. Culture supernatants were collected after 2 hr and 5 hr for TNF-α determination by ELISA. Assay 3) Macrophage TNF-α NO assay. J774.1a macrophage cells were treated with 10 μg/ml of test compound dissolved in solvent for 40 minutes prior to the addition of LPS. Culture supernatants were collected after 24 hr. for determination of NO concentration using the Griess reagent. Assay 4) Stimulation of mast cells by FcεRI crosslinking. Mast cells were pre-loaded overnight in BMMC medium lacking IL-3 with 0.1 μg/ml anti-DNP IgE (SPE-7, Sigma, Oakville, Ont). For calcium flux measurements, cells were incubated with 2 μM fura 2-acetoxymethyl ester (Molecular Probes, Eugene, Oreg.) in Tyrode's buffer at 23° C. for 45 min. Cells were then washed and incubated in the presence of the test compound 30 min prior to stimulation with the indicated concentration of DNP-human serum albumin (DNP-HSA). Calcium influx was monitored by spectrofluorometry as described previously. For analysis of intracellular signaling, cells were pre-loaded with anti-DNP IgE as above, pre-treated with the test compound for 30 min at 37° C. and stimulated with 20 ng/ml DNP-HSA for 5 min. Total cell lysates were then prepared and analyzed for phospho-PKB, phospho-p38^MAPK, phospho-MAPK, Grb-2 (Cell Signalling, Mississauga, Ont) and SHIP^6 by immunoblot analysis. Assay 5) Mouse acute cutaneous anaphylaxis model. 6-8 week old CD1 mice (University of British Columbia Animal Facility, Vancouver, BC) were sensitized to the hapten DNP by cutaneous application of 25 μL of 0.5% dinitrofluorobenzene (DNFB) (Sigma, Oakville, Ont) in acetone to the shaved abdomen of mice for two consecutive days. 24 hrs later, test substances (dissolved in 10 μL of 1:2 DMSO:MeOH) were painted on the right ear while the left ear received vehicle control. 30 min after drug application, DNFB was applied to both ears to induce mast cell degranulation. A 6 mm punch was taken from the ear and immediately frozen on dry ice for subsequent determination of neutrophil myeloperoxidase (MPO) activity. Assay 6) Mouse endotoxemia model. 6-8 week old C57B16 mice (VCHRI Mammalian Model of Human Disease Core Facility, Vancouver, BC) were orally administered the test compound 30 min prior to an IP injection of 2 mg/kg of LPS (E. Coli serotype 0111:B4, Sigma, Oakville, Ont). Blood was drawn 2 hrs later for determination of plasma TNFα by ELISA. Assay 7) In vitro Mulitple Myeloma (MM) assay. The ability of SHIP activators to reduce tumor cell survival was assessed in MM cell lines treated with the test compound. The lines OPM1, OPM2, MM.1S and RPMI 8226 were plated at a density of 1×10^5 cells/mL in 200 μL of medium with various concentrations of the test compound, and viable cell numbers were determined on day 3 and day 5 by trypan blue exclusion. The lines RPMI 8226 and U266 were plated at a density of 1×10^6 cells/mL in 250 μL of medium with various concentrations of the test compound. At day 4, the medium of each culture was replaced by fresh medium containing the same concentration of test compound. […]

[2] = tested on: J774.1a macrophage cells; assay: Macrophage TNF-α NO assay (Assay 3), Griess reagent; assay type: cell-based; details: 10 μg/ml test compound, LPS, supernatants after 24 hr; also: key: a ‘+’ indicates a positive result for desired activity; a ‘−’ indicates a negative result for desired activity
Protocol: as §1

[3] = tested on: plasma TNFα; assay: Mouse endotoxemia model (Assay 6), plasma TNFα by ELISA; assay type: in vivo, mice; details: oral, 30 min prior to IP 2 mg/kg LPS, plasma TNFα 2 hrs later
Protocol: as §1, with “6-8 week old C57B16 mice (VCHRI Mammalian Model of Human Disease Core Facility, Vancouver, BC) were orally administered the test compound 30 min prior to an IP injection of 2 mg/kg of LPS (E. Coli serotype 0111:B4, Sigma, Oakville, Ont). Blood was drawn 2 hrs later for determination of plasma TNFα by ELISA. Assay 7) In vitro Mulitple Myeloma (MM) assay.” left out, “exclusion.” for “exclusion. The lines RPMI 8226 and U266 were plated at a density of 1×10^6 cells/mL in 250 μL of medium with various concentrations of the test compound. At day 4, the medium of each culture was replaced by fresh medium containing the same concentration of test compound.”

[4] = tested on: MM cell lines; assay: In vitro Multiple Myeloma (MM) assay (Assay 7); assay type: cell-based; details: viable cell number by trypan blue; [3H]-thymidine; also: key: a ‘+’ indicates a positive result for desired activity; a ‘−’ indicates a negative result for desired activity
Protocol: as §1

[5] = tested on: Mast cells; assay: Stimulation of mast cells by FcεRI crosslinking (Assay 4); assay type: cell-based; details: test compound 30 min prior to DNP-HSA
Protocol: as §1, with “6-8 week old CD1 mice (University of British Columbia Animal Facility, Vancouver, BC) were sensitized to the hapten DNP by cutaneous application of 25 μL of 0.5% dinitrofluorobenzene (DNFB) (Sigma, Oakville, Ont) in acetone to the shaved abdomen of mice for two consecutive days. 24 hrs later, test substances (dissolved in 10 μL of 1:2 DMSO:MeOH) were painted on the right ear while the left ear received vehicle control. 30 min after drug application, DNFB was applied to both ears to induce mast cell degranulation. A 6 mm punch was taken from the ear and immediately frozen on dry ice for subsequent determination of neutrophil myeloperoxidase (MPO) activity. Assay 6) Mouse endotoxemia model. 6-8 week old C57B16 mice (VCHRI Mammalian Model of Human Disease Core Facility, Vancouver, BC) were orally administered the test compound 30 min prior to an IP injection of 2 mg/kg of LPS (E. Coli serotype 0111:B4, Sigma, Oakville, Ont). Blood was drawn 2 hrs later for determination of plasma TNFα by ELISA. Assay 7) In vitro Mulitple Myeloma (MM) assay.” left out, “exclusion.” for “exclusion. The lines RPMI 8226 and U266 were plated at a density of 1×10^6 cells/mL in 250 μL of medium with various concentrations of the test compound. At day 4, the medium of each culture was replaced by fresh medium containing the same concentration of test compound.”

[6] = tested on: SHIP enzyme; assay: In vitro SHIP enzyme assay (Assay 1), phosphate release by Malachite Green; assay type: biochemical; details: 10 ng enzyme/well, 100 μM inositol-1,3,4,5-tetrakisphosphate; also: key: a ‘+’ indicates a positive result for desired activity; a ‘−’ indicates a negative result for desired activity
Protocol: as §1

| Compound | Assay 2: Macrophage TNF-α production, desired activity [1] | Assay 3: Macrophage NO assay, desired activity [2] | Assay 6: Mouse endotoxemia model, desired activity [3] | Assay 7: In vitro Multiple Myeloma (MM) assay, desired activity [4] | Assay 4: Stimulation of mast cells by FcεRI crosslinking, desired activity [5] | Assay 1: SHIP enzyme assay, desired activity [6] |
| --- | --- | --- | --- | --- | --- | --- |
| Cc1cc(OC(=O)C(CC(=O)O)NC(=O)CCC(=O)O)cc2c1[C@]1(C)CCC3C(C)(C)CCC[C@]3(C)[C@H]1C2 (stereo partly drawn) [Compound 114] | + | + | + |  |  |  |
| COc1ccc2c(c1O)C[C@@H]1[C@@]3(C)CCCC(C)(C)[C@@H]3CC[C@@]21C [Compound 118] | − | + |  | + |  |  |
| Cc1cc(O)c2c(c1)C[C@@H]1[C@@]3(C)CCCC(C)(C)[C@@H]3CC[C@@]21C [Compound 122] | − | + |  | + |  |  |
| Cc1cc(O)cc2c1[C@@]1(C)CCC3C(C)(C)CCC[C@]3(C)[C@H]1C2 (stereo partly drawn) [Compound 125] | + | + |  | + | + |  |
| CC1(C)CCC[C@]2(C)[C@H]3Cc4cc(O)cc(O)c4[C@]3(C)CC[C@@H]12 [Compound 115] |  |  |  | + |  |  |
| COC(=O)c1cc(O)c(O)c2c1[C@@]1(C)CCC3C(C)(C)CCC[C@]3(C)[C@H]1C2 (stereo partly drawn) |  | + |  |  |  | + |
| COc1cc(C)c2c(c1O)C[C@@H]1[C@@]3(C)CCCC(C)(C)[C@@H]3CC[C@@]21C [Compound 129] | − | + |  |  |  |  |
| Cc1cc(OP(=O)(O)O)cc2c1[C@]1(C)CCC3C(C)(C)CCC[C@]3(C)[C@H]1C2 (stereo partly drawn) [Compound 109] | − | + |  | + |  |  |
| CC(=O)Oc1cc(C)c2c(c1)C[C@H]1[C@@]2(C)CCC2C(C)(C)CCC[C@@]21C (stereo partly drawn) [Compound 102] | + | + |  |  |  |  |
| COc1cc(O)cc2c1[C@]1(C)CC[C@H]3C(C)(C)CCC[C@]3(C)[C@H]1C2 [Compound 117] | + | + |  | + |  |  |
| CC1(C)CCC[C@@]2(C)C1CC[C@@]1(C)c3c(C(=O)O)cc(O)c(O)c3C[C@@H]12 (stereo partly drawn) | + | + |  |  |  | + |
| Cc1cc(OC(=O)C(N)Cc2cnc[nH]2)cc2c1[C@]1(C)CCC3C(C)(C)CCC[C@]3(C)[C@H]1C2 (stereo partly drawn) [Compound 123] | + | + |  |  |  |  |
| CC1(C)CCC[C@]2(C)[C@H]3Cc4cc(O)ccc4[C@]3(C)CC[C@@H]12 [Compound 121] | + | + |  | + |  |  |
| COC(=O)c1cc(O)c(O)c2c1[C@]1(C)CCC3C(C)(C)CCC[C@]3(C)[C@H]1C2 (stereo partly drawn) |  | + |  |  |  | + |
| COC(=O)c1cc(O)c(O)c2c1[C@]1(C)CCC3C(C)(C)CCC[C@]3(C)[C@@H]1C2 (stereo partly drawn) |  | + |  |  |  | + |
| Cc1cc2c(cc1O)C[C@@H]1[C@@]3(C)CCCC(C)(C)[C@@H]3CC[C@@]21C [Compound 101] | + | + |  | + |  |  |
| Cc1cc(OC(=O)C(N)CCCNC(=N)N)cc2c1[C@]1(C)CCC3C(C)(C)CCC[C@]3(C)[C@H]1C2 (stereo partly drawn) [Compound 105] | + | + |  |  |  |  |
| Cc1cc(O)cc2c1[C@]1(C)CCC3C(C)(C)CCC[C@]3(C)[C@@H]1C2 (stereo partly drawn) [Compound 124] | + | + |  | + | + |  |
| CCc1cc(O)c(O)c2c1[C@]1(C)CCC3C(C)(C)CCC[C@]3(C)[C@H]1C2 (stereo partly drawn) [Compound 18A] | + | + |  |  |  | + |
| Cc1cc(O)c(O)c2c1[C@@]1(C)CCC3C(C)(C)CCC[C@]3(C)[C@H]1C2 (stereo partly drawn) |  |  |  |  |  | + |
